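Growth conditions: 96-well plates. Treatment: test compound, 48 hours, 5 concentrations. Analysis: linear interpolation between bracketing concentrations; unreached endpoints set to highest concentration. GI50 marks 50% less growth. The concentration for full growth arrest is given as TGI.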
Legend:
Test in all cases: inhibition of tumour cell growth, NCI panel, 48 h
SK-OV-3 ovarian = system: SK-OV-3 ovarian
NCI/ADR-RES ovarian = system: NCI/ADR-RES ovarian
UO-31 renal = system: UO-31 renal
UACC-62 melanoma = system: UACC-62 melanoma
OVCAR-4 ovarian = system: OVCAR-4 ovarian
CAKI-1 renal = system: CAKI-1 renal
COLO 205 colon = system: COLO 205 colon
EKVX NSCLC = system: EKVX NSCLC
IGROV1 ovarian = system: IGROV1 ovarian
MCF7 breast = system: MCF7 breast

Row | Structure (SMILES) | TGI (SK-OV-3 ovarian) | TGI (NCI/ADR-RES ovarian) | TGI (UO-31 renal) | TGI (UACC-62 melanoma) | TGI (OVCAR-4 ovarian) | TGI (CAKI-1 renal) | TGI (COLO 205 colon) | TGI (EKVX NSCLC) | TGI (IGROV1 ovarian) | TGI (MCF7 breast) | GI50 (SK-OV-3 ovarian) | GI50 (UO-31 renal) | GI50 (UACC-62 melanoma) | GI50 (OVCAR-4 ovarian) | GI50 (CAKI-1 renal) | GI50 (EKVX NSCLC) | GI50 (NCI/ADR-RES ovarian) | GI50 (COLO 205 colon) | GI50 (IGROV1 ovarian) | GI50 (MCF7 breast)
1 | S=P1(N2CCCCC2)Oc2ccc3ccccc3c2-c2c(ccc3ccccc23)O1 | > 100 µM | > 100 µM | > 100 µM | > 100 µM | 97.6 µM | > 100 µM | > 100 µM | > 100 µM | > 100 µM | > 100 µM |  |  |  |  |  |  |  |  |  | 
2 | N=C(N)c1ccc(-c2ccc(-c3ccccc3)s2)cc1 | 7.27 µM |  | 2.81 µM | 3.42 µM | 3.21 µM | 2.92 µM |  | 11.4 µM |  |  | 2.42 µM | 1.48 µM | 1.75 µM | 1.59 µM | 1.58 µM | 2.65 µM |  |  |  | 
3 | COc1cc(/C=C/c2cc(/C=C/c3ccc(O)c(OC)c3)nc(N)n2)ccc1O | 8.23 µM | 18.8 µM | 7.58 µM |  | 11.5 µM | 6.46 µM | 3.24 µM | 6.83 µM | 7.08 µM | 6.33 µM | 2.6 µM | 2.09 µM |  | 1.71 µM | 2.23 µM | 2.22 µM | 2.88 µM | 1.8 µM | 2.95 µM | 1.81 µM
4 | C=C1C(=O)C[C@@]23CCC[C@@]12CC(OCOC)C3 (some centres not stated) | 17.8 µM | 9.5 µM | 13.3 µM | 7.62 µM | 5.66 µM | 6.94 µM | 14.6 µM | 16.7 µM | 6.02 µM | 3.74 µM |  |  |  |  |  |  |  |  |  | 
5 | Nc1nc(Cl)cc(OCC2(CO)CC(OCc3ccccc3)C2)n1 (configuration not stated) |  |  |  |  |  |  |  |  |  |  | 61.2 µM | 40.1 µM | 77.1 µM | 47.9 µM | 48.2 µM | 44.6 µM | 45.8 µM | 72.5 µM |  | 46.2 µM
6 | O=[N+]([O-])c1ccccc1NC1c2ccccc2Oc2ccccc21 |  | > 100 µM | > 100 µM | > 100 µM | > 100 µM | > 100 µM | > 100 µM | > 100 µM | > 100 µM | > 100 µM |  | 7.46 µM | 2.94 µM | 8.21 µM | 11 µM | 17.2 µM | 4.03 µM | 3.59 µM | 16.9 µM | 4.13 µM
7 | COC(=O)c1cccc(N[C@@H]2c3cc4c(cc3C(c3cc(OC)c(O)c(OC)c3)[C@H]3C(=O)OCC32)OCO4)c1 (some centres not stated) | 23.6 µM | > 85.1 µM | 11.7 µM | 8.28 µM | > 100 µM | 2.91 µM | 5.5 µM | > 26.6 µM | > 50.7 µM | > 67.7 µM |  |  |  |  |  |  |  |  |  | 
8 | Cc1cc(C)c2c(c1)CC1(Cc3c(C)ccc(C)c3C1=O)C2=O (configuration not stated) |  | > 100 µM |  | > 100 µM | > 100 µM | > 100 µM | > 100 µM | > 100 µM | > 100 µM | > 100 µM |  |  |  |  |  |  |  |  |  | 
9 | Cc1ccc([N+](=O)[O-])cc1S(=O)(=O)Nc1ccc(C2=NNC(c3ccccc3O)C2)cc1 (configuration not stated) | > 100 µM | 81 µM | 79.2 µM | 41.6 µM | 63.8 µM | > 100 µM | 65.5 µM | 56.9 µM | > 100 µM | 64.7 µM |  |  |  |  |  |  |  |  |  | 
10 | CCCCCCCC/C=C\CCCCCCCC(=O)O | > 500 µM | 196 µM | 241 µM | 351 µM | > 352 µM | 206 µM | > 500 µM | 164 µM | > 281 µM | 215 µM |  |  |  |  |  |  |  |  |  | 
11 | CCN(CC)CCCNc1ncc(C)c2[nH]c3ccncc3c12 | 15.9 µM | > 100 µM | > 100 µM | 28.2 µM | 13.8 µM |  | 22.6 µM | 63.3 µM | 27.3 µM | 17.4 µM |  |  |  |  |  |  |  |  |  | 
12 | N=c1c2c(=S)n(-c3ccccc3)c(=S)n(-c3ccccc3)c2nc(SCCCN2CCN(c3cccc(Cl)c3)CC2)n1-c1ccccc1 | > 100 µM | > 100 µM |  | > 100 µM | > 100 µM | > 100 µM | > 100 µM | > 100 µM | > 100 µM | > 100 µM |  |  |  |  |  |  |  |  |  | 
13 | O=C(O)CNc1ccc(C(=O)O)cc1 | > 100 µM | > 100 µM | > 100 µM | > 100 µM | > 100 µM | > 100 µM | > 100 µM | > 100 µM | > 100 µM | > 100 µM |  |  |  |  |  |  |  |  |  | 
14 | O=C(O)CS | > 100 µM |  | > 100 µM | > 100 µM | > 100 µM | > 100 µM | > 100 µM | > 100 µM | > 100 µM |  |  |  |  |  |  |  |  |  |  | 
15 | CCNc1nnc(-c2nsc3ccccc23)s1 |  |  | > 100 µM | > 100 µM | > 100 µM |  | > 100 µM | > 100 µM | > 100 µM |  |  |  |  |  |  |  |  |  |  | 

— PubChem BioAssay (NCI)
